Measured values published in PubChem BioAssay (NCI).
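These data come from cells grown in 96-well plates and exposed to compound for 48 hours at five concentrations. GI50 = concentration required for 50% inhibition of growth. The concentration for full growth arrest is given as TGI.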

Tests used:
Test in all cases: NCI-60 cell line screen, 48 h
HT29 colon = system: HT29 colon
MCF7 breast = system: MCF7 breast
COLO 205 colon = system: COLO 205 colon
BT-549 breast = system: BT-549 breast
IGROV1 ovarian = system: IGROV1 ovarian
SR leukemia = system: SR leukemia
SK-MEL-5 melanoma = system: SK-MEL-5 melanoma
SNB-75 CNS = system: SNB-75 CNS
NCI-H460 lung = system: NCI-H460 lung
MDA-MB-435 = system: MDA-MB-435
NCI/ADR-RES ovarian = system: NCI/ADR-RES ovarian
A498 renal = system: A498 renal
NCI-H522 lung = system: NCI-H522 lung
MOLT-4 leukemia = system: MOLT-4 leukemia
UACC-62 melanoma = system: UACC-62 melanoma
EKVX NSCLC = system: EKVX NSCLC
SF-268 CNS = system: SF-268 CNS
K-562 leukemia = system: K-562 leukemia
CCRF-CEM leukemia = system: CCRF-CEM leukemia
HS 578T breast = system: HS 578T breast
UO-31 renal = system: UO-31 renal
SK-OV-3 ovarian = system: SK-OV-3 ovarian
HL-60(TB) leukemia = system: HL-60(TB) leukemia
NCI-H23 lung = system: NCI-H23 lung
LOX IMVI melanoma = system: LOX IMVI melanoma
OVCAR-4 ovarian = system: OVCAR-4 ovarian
ACHN renal = system: ACHN renal
M14 melanoma = system: M14 melanoma
SK-MEL-2 melanoma = system: SK-MEL-2 melanoma
CAKI-1 renal = system: CAKI-1 renal
OVCAR-3 ovarian = system: OVCAR-3 ovarian
MDA-MB-231 breast = system: MDA-MB-231 breast
NCI-H226 lung = system: NCI-H226 lung
HCC-2998 colon = system: HCC-2998 colon
DU-145 prostate = system: DU-145 prostate
SW-620 colon = system: SW-620 colon
HOP-62 NSCLC = system: HOP-62 NSCLC
HCT-15 colon = system: HCT-15 colon
U251 CNS = system: U251 CNS
OVCAR-8 ovarian = system: OVCAR-8 ovarian
SF-539 CNS = system: SF-539 CNS
TK-10 renal = system: TK-10 renal
PC-3 prostate = system: PC-3 prostate
SNB-19 CNS = system: SNB-19 CNS
RPMI-8226 leukemia = system: RPMI-8226 leukemia
KM12 colon = system: KM12 colon
HCT-116 colon = system: HCT-116 colon
SN12C renal = system: SN12C renal
OVCAR-5 ovarian = system: OVCAR-5 ovarian
RXF 393 renal = system: RXF 393 renal
786-0 renal = system: 786-0 renal
T-47D breast = system: T-47D breast
MALME-3M melanoma = system: MALME-3M melanoma
UACC-257 melanoma = system: UACC-257 melanoma
SF-295 CNS = system: SF-295 CNS
SK-MEL-28 melanoma = system: SK-MEL-28 melanoma
A549 NSCLC = system: A549 NSCLC

C[C@@]12CCC[C@@](C)(C(=O)O)C1CC[C@]13C[C@@](O)(CO)[C@](O)(CCC12)C3 (some centres undefined)
GI50 (HT29 colon): > 100 µM | TGI (HT29 colon): > 100 µM | GI50 (MCF7 breast): > 100 µM | TGI (MCF7 breast): > 100 µM | GI50 (COLO 205 colon): > 100 µM | TGI (COLO 205 colon): > 100 µM | GI50 (BT-549 breast): > 100 µM | TGI (BT-549 breast): > 100 µM | GI50 (IGROV1 ovarian): > 100 µM | TGI (IGROV1 ovarian): > 100 µM | GI50 (SR leukemia): 55.3 µM | TGI (SR leukemia): > 100 µM | GI50 (SK-MEL-5 melanoma): > 100 µM | TGI (SK-MEL-5 melanoma): > 100 µM | GI50 (SNB-75 CNS): > 100 µM | TGI (SNB-75 CNS): > 100 µM | GI50 (NCI-H460 lung): > 100 µM | TGI (NCI-H460 lung): > 100 µM | GI50 (MDA-MB-435): > 100 µM | TGI (MDA-MB-435): > 100 µM | GI50 (NCI/ADR-RES ovarian): > 100 µM | TGI (NCI/ADR-RES ovarian): > 100 µM | GI50 (A498 renal): > 100 µM | TGI (A498 renal): > 100 µM | GI50 (NCI-H522 lung): > 100 µM | TGI (NCI-H522 lung): > 100 µM | GI50 (MOLT-4 leukemia): > 100 µM | TGI (MOLT-4 leukemia): > 100 µM | GI50 (UACC-62 melanoma): > 100 µM | TGI (UACC-62 melanoma): > 100 µM | GI50 (EKVX NSCLC): > 100 µM | TGI (EKVX NSCLC): > 100 µM | GI50 (SF-268 CNS): > 100 µM | TGI (SF-268 CNS): > 100 µM | GI50 (K-562 leukemia): > 100 µM | TGI (K-562 leukemia): > 100 µM | GI50 (CCRF-CEM leukemia): > 100 µM | TGI (CCRF-CEM leukemia): > 100 µM | GI50 (HS 578T breast): > 100 µM | TGI (HS 578T breast): > 100 µM | GI50 (UO-31 renal): > 100 µM | TGI (UO-31 renal): > 100 µM | GI50 (SK-OV-3 ovarian): > 100 µM | TGI (SK-OV-3 ovarian): > 100 µM | GI50 (HL-60(TB) leukemia): > 100 µM | TGI (HL-60(TB) leukemia): > 100 µM | GI50 (NCI-H23 lung): > 100 µM | TGI (NCI-H23 lung): > 100 µM | GI50 (LOX IMVI melanoma): > 100 µM | TGI (LOX IMVI melanoma): > 100 µM | GI50 (OVCAR-4 ovarian): > 100 µM | TGI (OVCAR-4 ovarian): > 100 µM | GI50 (ACHN renal): > 100 µM | TGI (ACHN renal): > 100 µM | GI50 (M14 melanoma): > 100 µM | TGI (M14 melanoma): > 100 µM | GI50 (SK-MEL-2 melanoma): > 100 µM | TGI (SK-MEL-2 melanoma): > 100 µM | GI50 (CAKI-1 renal): > 100 µM | TGI (CAKI-1 renal): > 100 µM | GI50 (OVCAR-3 ovarian): > 100 µM | TGI (OVCAR-3 ovarian): > 100 µM | GI50 (MDA-MB-231 breast): > 100 µM | TGI (MDA-MB-231 breast): > 100 µM | GI50 (NCI-H226 lung): > 100 µM | TGI (NCI-H226 lung): > 100 µM | GI50 (HCC-2998 colon): > 100 µM | TGI (HCC-2998 colon): > 100 µM | GI50 (DU-145 prostate): > 100 µM | TGI (DU-145 prostate): > 100 µM | GI50 (SW-620 colon): > 100 µM | TGI (SW-620 colon): > 100 µM | GI50 (HOP-62 NSCLC): > 100 µM | TGI (HOP-62 NSCLC): > 100 µM | GI50 (HCT-15 colon): > 100 µM | TGI (HCT-15 colon): > 100 µM | GI50 (U251 CNS): > 100 µM | TGI (U251 CNS): > 100 µM | GI50 (OVCAR-8 ovarian): > 100 µM | TGI (OVCAR-8 ovarian): > 100 µM | GI50 (SF-539 CNS): > 100 µM | TGI (SF-539 CNS): > 100 µM | GI50 (TK-10 renal): > 100 µM | TGI (TK-10 renal): > 100 µM | GI50 (PC-3 prostate): > 100 µM | TGI (PC-3 prostate): > 100 µM | GI50 (SNB-19 CNS): > 100 µM | TGI (SNB-19 CNS): > 100 µM | GI50 (RPMI-8226 leukemia): > 100 µM | TGI (RPMI-8226 leukemia): > 100 µM | GI50 (KM12 colon): > 100 µM | TGI (KM12 colon): > 100 µM | GI50 (HCT-116 colon): > 100 µM | TGI (HCT-116 colon): > 100 µM | GI50 (SN12C renal): > 100 µM | TGI (SN12C renal): > 100 µM | GI50 (OVCAR-5 ovarian): > 100 µM | TGI (OVCAR-5 ovarian): > 100 µM | GI50 (RXF 393 renal): > 100 µM | TGI (RXF 393 renal): > 100 µM | GI50 (786-0 renal): > 100 µM | TGI (786-0 renal): > 100 µM | GI50 (T-47D breast): > 100 µM | TGI (T-47D breast): > 100 µM | GI50 (MALME-3M melanoma): > 100 µM | TGI (MALME-3M melanoma): > 100 µM | GI50 (UACC-257 melanoma): > 100 µM | TGI (UACC-257 melanoma): > 100 µM | GI50 (SF-295 CNS): > 100 µM | TGI (SF-295 CNS): > 100 µM | GI50 (SK-MEL-28 melanoma): > 100 µM | TGI (SK-MEL-28 melanoma): > 100 µM | GI50 (A549 NSCLC): > 100 µM | TGI (A549 NSCLC): > 100 µM
